Where only a bound is given, the exact number is not on record here.

The target of this assay is T1, IL-17A/A (Homo sapiens, UniProt Q16552).
T1 construct: purchased Genscript Z03228
T1 sequence (Q16552 24-155): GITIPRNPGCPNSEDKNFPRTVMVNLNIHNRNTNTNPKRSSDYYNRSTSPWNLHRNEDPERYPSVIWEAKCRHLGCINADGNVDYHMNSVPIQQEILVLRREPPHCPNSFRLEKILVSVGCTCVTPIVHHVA
Kind of assay: IL-17A/A HEK-Blue cell assay. Format: cell-based. Conditions: HEK-Blue IL-17A reporter cell line (HEK 293), IL-17A/A stimulation, 20 hours incubation, SEAP read at A630. Put shortly: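 HEK293 reporter cells expressing IL-17RA, IL-17RC and Act1 were given titrated compound (top final 10, 1 or 0.3 uM; 0.1% DMSO) right before IL-17A/A and incubated 20 hours. NFκB-driven SEAP in the media was read at A630 with Quanti-Blue, and IC50 came from a 4-parameter nonlinear fit.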
Consider `O=C(N[C@H](c1cn2nc(CC3C[C@H](C(F)(F)F)CNC3=O)ccc2n1)[C@H]1CCCC(F)(F)C1)c1nonc1C1CC1` (stereo partly drawn) [Compound 155, 4-cyclopropyl-N—((S)-((S)-3,3-difluorocyclohexyl)(6-(((5S)-2-oxo-5-(trifluoromethyl)piperidin-3-yl)methyl)imidazo[1,2-b]pyridazin-2-yl)methyl)-1,2,5-oxadiazole-3-carboxamide], for which the IC50 is under 100 nM.

`CCn1nccc1C(=O)N[C@H](c1cn2nc(CC3C[C@@H](C)NC3=O)ccc2n1)[C@H]1CC[C@H](C)CC1` (single isomer, unassigned) [Compound 63]: the IC50 was in the range of 100 to 1000 nM.

For `CCn1ncnc1C(=O)N[C@H](c1cn2nc(CC3C[C@@H](C(F)(F)F)CNC3=O)ccc2n1)[C@H]1CC[C@H](C)CC1` (stereo partly drawn) [Compound 166, N-((1S)-((1R.4S)-4-methylcyclohexyl)(6-(((5R)-2-oxo-5-(trifluoromethyl)piperidin-3-yl)methyl)imidazo[1,2-b]pyridazin-2-yl)methyl)-1-ethyl-1H-1,2,4-triazole-5-carboxamide], the IC50 was over 1000 nM.

For the molecule `CCn1nccc1C(=O)N[C@H](c1cn2nc(CC3C[C@@H](C(F)(F)F)CNC3=O)ccc2n1)C1CCC(F)(F)CC1` (stereo partly drawn) [Compound 193, N-((1S)-(4,4-difluorocyclohexyl)(6-(((5R)-2-oxo-5-(trifluoromethyl)piperidin-3-yl)methyl)imidazo[1,2-b]pyridazin-2-yl)methyl)-1-ethyl-1H-pyrazole-5-carboxamide], the IC50 is over 1000 nM.

Consider `Cn1nc(C(F)F)cc1C(=O)N[C@H](c1cn2nc(CC3C[C@@H](C(F)(F)F)CNC3=O)ccc2n1)C1CCC(F)(F)CC1` (stereo partly drawn) [Compound 129, N-((1S)-(4,4-difluorocyclohexyl)(6-(((5R)-2-oxo-5-(trifluoromethyl)piperidin-3-yl)methyl)imidazo[1,2-b]pyridazin-2-yl)methyl)-3-(difluoromethyl)-1-methyl-1H-pyrazole-5-carboxamide], for which the IC50 is over 1000 nM.

As to `CC(C)c1nonc1C(=O)N[C@H](c1cn2nc(CC3C[C@@H](C(F)(F)F)CNC3=O)ccc2n1)[C@H]1CCCC(F)(F)C1` (stereo partly drawn) [Compound 150, N-((1S)—((S)-3,3-difluorocyclohexyl)(6-(((5R)-2-oxo-5-(trifluoromethyl)piperidin-3-yl)methyl)imidazo[1,2-b]pyridazin-2-yl)methyl)-4-isopropyl-1,2,5-oxadiazole-3-carboxamide], the IC50 was under 100 nM.

Consider `CCn1nccc1C(=O)N[C@H](c1cn2nc(CC3CCCNC3=O)ccc2n1)C1CCCCCC1` (single isomer, unassigned) [Compound 11], for which the IC50 is over 1000 nM.

As for `O=C(N[C@H](c1cn2nc(CC3C[C@@H](C(F)(F)F)CNC3=O)ccc2n1)C1CCC(F)(F)CC1)c1conc1C1CC1` (stereo partly drawn) [Compound 136, 3-cyclopropyl-N-((1S)-(4,4-difluorocyclohexyl)(6-(((5R)-2-oxo-5-(trifluoromethyl)piperidin-3-yl)methyl)imidazo[1,2-b]pyridazin-2-yl)methyl)isoxazole-4-carboxamide], the IC50 fell in the range of 100 to 1000 nM.

`O=C(N[C@H](c1cn2nc(CC3C[C@@H](C(F)(F)F)CNC3=O)ccc2n1)C1CCC(F)(F)CC1)c1conc1CF` (stereo partly drawn) [Compound 119, N-((1S)-(4,4-difluorocyclohexyl)(6-(((5R)-2-oxo-5-(trifluoromethyl)piperidin-3-yl)methyl)imidazo[1,2-b]pyridazin-2-yl)methyl)-3-(fluoromethyl)isoxazole-4-carboxamide]: the IC50 is 100 to 1000 nM.

`O=C(N[C@H](c1cn2nc(CC3C[C@@H](C(F)(F)F)CNC3=O)ccc2n1)C1CCC(F)(F)CC1)c1cnsn1` (stereo partly drawn) [Compound 132, N-((1S)-(4,4-difluorocyclohexyl)(6-(((5R)-2-oxo-5-(trifluoromethyl)piperidin-3-yl)methyl)imidazo[1,2-b]pyridazin-2-yl)methyl)-1,2,5-thiadiazole-3-carboxamide]: the IC50 is over 1000 nM.

For `CCn1nccc1C(=O)N[C@H](c1cn2nc(C(C)C3C[C@@H](C(F)(F)F)CNC3=O)ccc2n1)C(C1CC1)C1CC1` (single isomer, unassigned) [Compound 56], the IC50 is over 1000 nM.

`CC[C@@H](c1ccc(F)cc1)C(NC(=O)c1ccnn1CC)c1cn2nc(CC3CC(F)(F)CNC3=O)ccc2n1` (single isomer, unassigned) [Compound 31]: the IC50 lay within 100 to 1000 nM.

For `CCn1nccc1C(=O)N[C@H](c1cn2nc(CC3CC(C(C)(F)F)NC3=O)ccc2n1)C1CCC(F)(F)CC1` (single isomer, unassigned) [Compound 68], the half-maximal inhibitory concentration (IC50) was over 1000 nM.

Regarding `CCN(C)c1cc2nc([C@@H](NC(=O)c3ccnn3CC)C3CCC(F)(F)CC3)cn2nc1CC1C[C@@H](C(F)(F)F)CNC1=O` (single isomer, unassigned) [Compound 88], the IC50 was under 100 nM.

As to `CCn1nccc1C(=O)N[C@H](c1cn2nc(C(COC)C3C[C@@H](C(F)(F)F)CNC3=O)ccc2n1)C(C1CC1)C1CC1` (single isomer, unassigned) [Compound 62], the IC50 fell in the range of 100 to 1000 nM.

For `CCn1nccc1C(=O)N[C@H](c1cn2nc(CC3(C)C[C@@H](C(F)(F)F)CNC3=O)ccc2n1)[C@H]1CC[C@H](C)CC1` (single isomer, unassigned) [Compound 67], the IC50 was 100 to 1000 nM.

Turning to `Cc1nonc1C(=O)N[C@H](c1cn2nc(CC3C[C@@H](C(F)(F)F)CNC3=O)ccc2n1)[C@H]1CC[C@H](C)CC1` (stereo partly drawn) [Compound 165, 4-Methyl-N-((1S)-((1R.4S)-4-methylcyclohexyl)(6-(((5R)-2-oxo-5-(trifluoromethyl)piperidin-3-yl)methyl)imidazo[1,2-b]pyridazin-2-yl)methyl)-1,2,5-oxadiazole-3-carboxamide], the IC50 was in the range of 100 to 1000 nM.

For `O=C1NC[C@H](C(F)(F)F)CC1Cc1ccc2nc([C@@H](NC(=O)C3(F)CC3)C3CCC(F)(F)CC3)cn2n1` (stereo partly drawn) [Compound 139, N-((1S)-(4,4-difluorocyclohexyl)(6-(((5R)-2-oxo-5-(trifluoromethyl)piperidin-3-yl)methyl)imidazo[1,2-b]pyridazin-2-yl)methyl)-1-fluorocyclopropane-1-carboxamide], the IC50 was over 1000 nM.

Consider `CCn1nccc1C(=O)N[C@H](c1cn2nc(CC3C[C@H](C(F)(F)F)CNC3=O)c(C)cc2n1)C1CCC(F)(F)CC1` (single isomer, unassigned) [Compound 92], for which the half-maximal inhibitory concentration (IC50) was under 100 nM.

For the molecule `CCn1nccc1C(=O)N[C@H](c1cn2ncc(CC3CCCNC3=O)cc2n1)C1CCCCCC1` (mixture of isomers) [Compound 206, N-((1S)-cycloheptyl(7-((2-oxopiperidin-3-yl)methyl)imidazo[1,2-b]pyridazin-2-yl)methyl)-1-ethyl-1H-pyrazole-5-carboxamide], the 50% inhibitory concentration (IC50) was over 1000 nM.

`O=C(N[C@H](c1cn2nc(CC3C[C@H](C(F)(F)F)CNC3=O)ccc2n1)[C@@H]1CCCC(F)(F)C1)c1nonc1C1CC1` (stereo partly drawn) [Compound 156, 4-cyclopropyl-N—((S)-((R)-3,3-difluorocyclohexyl)(6-(((5S)-2-oxo-5-(trifluoromethyl)piperidin-3-yl)methyl)imidazo[1,2-b]pyridazin-2-yl)methyl)-1,2,5-oxadiazole-3-carboxamide]: the IC50 lay in the range of 100 to 1000 nM.

Regarding `O=C(N[C@H](c1cn2nc(CC3C[C@@H](C(F)(F)F)CNC3=O)ccc2n1)C1CCC(F)(F)CC1)c1nonc1C(F)(F)F` (stereo partly drawn) [Compound 113, N-((1S)-(4,4-difluorocyclohexyl)(6-(((5R)-2-oxo-5-(trifluoromethyl)piperidin-3-yl)methyl)imidazo[1,2-b]pyridazin-2-yl)methyl)-4-(trifluoromethyl)-1,2,5-oxadiazole-3-carboxamide], the IC50 lay within 100 to 1000 nM.

As to `CCn1nccc1C(=O)N[C@H](c1cn2nc(CC3C[C@@H](C(F)(F)F)CNC3=O)c(C(F)(F)F)cc2n1)[C@H]1CC[C@H](C)CC1` (single isomer, unassigned) [Compound 78], the IC50 lay in the range of 100 to 1000 nM.

In the case of `Cc1nonc1C(=O)N[C@H](c1cn2nc(CC3CCNC3=O)ccc2n1)C1CCCCCC1` (single isomer, unassigned) [Compound 14, N-((1 S)-cycloheptyl(6-((2-oxopyrrolidin-3-yl)methyl)imidazo[1,2-b]pyridazin-2-yl)methyl)-4-methyl-1,2,5-oxadiazole-3-carboxamide], the IC50 lay within 100 to 1000 nM.

For `O=C(N[C@H](c1cn2nc(CC3C[C@@H](C(F)(F)F)CNC3=O)ccc2n1)[C@@H]1CCCC(F)(F)C1)c1nonc1C1CC1` (stereo partly drawn) [Compound 145, 4-cyclopropyl-N—((S)-((R)-3,3-difluorocyclohexyl)(6-(((5R)-2-oxo-5-(trifluoromethyl)piperidin-3-yl)methyl)imidazo[1,2-b]pyridazin-2-yl)methyl)-1,2,5-oxadiazole-3-carboxamide], the IC50 is under 100 nM.

In the case of `O=C(N[C@H](c1cn2nc(CC3C[C@@H](C(F)(F)F)CNC3=O)ccc2n1)C1CCC(F)(F)CC1)c1conc1C12CC(F)(C1)C2` (stereo partly drawn) [Compound 140, N-((1S)-(4,4-difluorocyclohexyl)(6-(((5R)-2-oxo-5-(trifluoromethyl)piperidin-3-yl)methyl)imidazo[1,2-b]pyridazin-2-yl)methyl)-3-(3-fluorobicyclo[1.1.1]pentan-1-yl)isoxazole-4-carboxamide], the IC50 fell in the range of 100 to 1000 nM.

For the molecule `CCCn1nccc1C(=O)N[C@H](c1cn2nc(CC3C[C@@H](C(F)(F)F)CNC3=O)ccc2n1)C1CCC(F)(F)CC1` (stereo partly drawn) [Compound 128, N-((1S)-(4,4-difluorocyclohexyl)(6-(((5R)-2-oxo-5-(trifluoromethyl)piperidin-3-yl)methyl)imidazo[1,2-b]pyridazin-2-yl)methyl)-1-propyl-1H-pyrazole-5-carboxamide], the IC50 was 100 to 1000 nM.

For the origin of these results see patent US20250346602A1, “LACTAM SUBSTITUTED IMIDAZOPYRIDAZINE IL-17A MODULATORS AND USES THEREOF” (DICE ALPHA, INC., priority 2022, published 2025).
